Results reported in patent US11858958B2, “Blank liposome with ginsenoside Rg3 or its analog as membrane materials and preparations and uses thereof” (Shanghai Ginsome Pharmatech Co., Ltd., priority 2018, dated 2024).

Experiments:
[1] = test system: human gastric cancer cells (BGC-823); test: In vitro cell viability assay; type: cell-based; set-up: unit not given here
Text: (§1) For each concentration group, 4 replicates were set up. The whole experiment was independently repeated 3 times.

rat C6 glioma cells [2] = test: In vitro drug efficiency assay, survival rate of glioma cells; type: cell-based; conditions: 72 h
Text: as §1
The survival rate of rat glioma C6 cells with addition of Rg3 group, Rg3-blank group, PTX group, PTX+Rg3 group, PTX-Cho-Lipo group and PTX-Rg3-Gipo group at various concentrations respectively are listed in Table 11 and FIG. 12.

[3] = test system: human breast cancer cell line (4T1); test: In vitro drug efficacy assay, cell survival rate (Rh2/PTX groups)
Description: Logarithmically growing tumor cells were collected and resuspended in DMEM complete medium supplemented with 10% fetal bovine serum, 100 U/ml penicillin and 100 μg/ml streptomycin to a final cell density of 4×10^4 cells/ml. Then, 200 μl cell suspension solution was seeded into each well of a 96-well plate (with a concentration of 8×10^3 cells/well) and the plate was cultured in a CO2 cell culture incubator at 37° C. […] The group without replacing DMEM complete medium by anti-cancer drug solution was used as negative control. For each concentration group, 4 replicates were set up. The whole experiment was independently repeated 3 times. The cells were continuously cultured in a CO2 cell culture incubator at 37° C. […] Then discarded the supernatant, added 150 μl DMSO into each well, and shaked the plate for 10 min. The absorbance was measured at 490 nm using a microplate reader (Tecan infinite M 200 TECAN, Switzerland). The cell survival rate is calculated according to the following formula:

[4] = test system: in-situ glioma model (C6 cells); test: Survival curve and median survival day; type: in vivo, nude mice
rat C6 glioma cells [5] = test: In vitro drug efficiency assay, survival rate of glioma cells; type: cell-based; conditions: rat, 72 h

## CC(=O)O[C@H]1C(=O)[C@@]2(C)[C@H]([C@H](OC(=O)c3ccccc3)[C@]3(O)C[C@H](OC(=O)[C@H](O)[C@@H](NC(=O)c4ccccc4)c4ccccc4)C(C)=C1C3(C)C)[C@]1(OC(C)=O)CO[C@@H]1C[C@@H]2O [PTX, paclitaxel]
[1]; listed as 1 of 9, PTX series C 0.0027-6 μg/mL ascending (8 levels)
  Cell Viability: 91.9
[1]; listed as 2 of 9, PTX series C 0.0027-6 μg/mL ascending (8 levels)
  Cell Viability: 80.5
[1]; listed as 3 of 9, PTX series C 0.0027-6 μg/mL ascending (8 levels)
  Cell Viability: 60.9
[1]; listed as 4 of 9, PTX series C 0.0027-6 μg/mL ascending (8 levels)
  Cell Viability: 50.3
[1]; listed as 5 of 9, PTX series C 0.0027-6 μg/mL ascending (8 levels)
  Cell Viability: 41.6
[1]; listed as 6 of 9, PTX series C 0.0027-6 μg/mL ascending (8 levels)
  Cell Viability: 42.7
[1]; listed as 7 of 9, PTX series C 0.0027-6 μg/mL ascending (8 levels)
  Cell Viability: 38.0
[1]; listed as 8 of 9, PTX series C 0.0027-6 μg/mL ascending (8 levels)
  Cell Viability: 33.2
[1]; listed as 9 of 9, PTX series C 0.0027-6 μg/mL ascending (8 levels)
  Cell Viability: 32.2
Rat C6 glioma cells [2]; 0.0046 μg/ml
  Cell Viability: 73.2867
Rat C6 glioma cells [2]; 0.0412 μg/ml
  Cell Viability: 60.49
Rat C6 glioma cells [2]; 0.1235 μg/ml
  Cell Viability: 49.91
Rat C6 glioma cells [2]; 0.37 μg/ml
  Cell Viability: 45.98
Rat C6 glioma cells [2]; 1.111 μg/ml
  Cell Viability: 43.89
Rat C6 glioma cells [2]; 3.333 μg/ml
  Cell Viability: 43.21
[3]; 4T1, C 0.00091 μM
  Cell Viability: 106.72
[3]; 4T1, C 0.00274 μM
  Cell Viability: 94.70
[3]; 4T1, C 0.00823 μM
  Cell Viability: 59.19
[3]; 4T1, C 0.02469 μM
  Cell Viability: 55.83
[3]; 4T1, C 0.07407 μM
  Cell Viability: 49.25
[3]; 4T1, C 0.22222 μM
  Cell Viability: 48.48
[3]; 4T1, C 0.66667 μM
  Cell Viability: 48.54
[3]; 4T1, C 2.00000 μM
  Cell Viability: 52.00
[4]; tail vein 10 mg·kg^−1
  Median survial: 27 days
[4]; tail vein 10 mg·kg^−1, Time 12 d
  number of survived mice: 10
[4]; tail vein 10 mg·kg^−1, Time 14 d
  number of survived mice: 10
[4]; tail vein 10 mg·kg^−1, Time 16 d
  number of survived mice: 9
[4]; tail vein 10 mg·kg^−1, Time 18 d
  number of survived mice: 8
[4]; tail vein 10 mg·kg^−1, Time 20 d
  number of survived mice: 7
[4]; tail vein 10 mg·kg^−1, Time 22 d
  number of survived mice: 6
[4]; tail vein 10 mg·kg^−1, Time 24 d
  number of survived mice: 6
[4]; tail vein 10 mg·kg^−1, Time 26 d
  number of survived mice: 5
[4]; tail vein 10 mg·kg^−1, Time 28 d
  number of survived mice: 4
[4]; tail vein 10 mg·kg^−1, Time 30 d
  number of survived mice: 4
[4]; tail vein 10 mg·kg^−1, Time 32 d
  number of survived mice: 4
[4]; tail vein 10 mg·kg^−1, Time 34 d
  number of survived mice: 3
[4]; tail vein 10 mg·kg^−1, Time 36 d
  number of survived mice: 1
[4]; tail vein 10 mg·kg^−1, Time 38 d
  number of survived mice: 1
[4]; tail vein 10 mg·kg^−1, Time 40 d
  number of survived mice: 0
[4]; tail vein 10 mg·kg^−1, Time 42 d
  number of survived mice: 0
[4]; tail vein 10 mg·kg^−1, Time 44 d
  number of survived mice: 0
[4]; tail vein 10 mg·kg^−1, Time 46 d
  number of survived mice: 0
[4]; tail vein 10 mg·kg^−1, Time 48 d
  number of survived mice: 0
[4]; tail vein 10 mg·kg^−1, Time 50 d
  number of survived mice: 0
[4]; tail vein 10 mg·kg^−1, Time 52 d
  number of survived mice: 0
[4]; tail vein 10 mg·kg^−1, Time 54 d
  number of survived mice: 0
[4]; tail vein 10 mg·kg^−1, Time 56 d
  number of survived mice: 0
[4]; tail vein 10 mg·kg^−1, Time 58 d
  number of survived mice: 0
[4]; tail vein 10 mg·kg^−1, Time 60 d
  number of survived mice: 0
[4]; tail vein 10 mg·kg^−1, Time 62 d
  number of survived mice: 0
Rat C6 glioma cells [5]; 0.0005 μg/ml
  Cell Viability: 100
Rat C6 glioma cells [5]; 0.0015 μg/ml
  Cell Viability: 79.49
Rat C6 glioma cells [5]; 0.0137 μg/ml
  Cell Viability: 65.36
Rat C6 glioma cells [5]; 10 μg/ml
  Cell Viability: 39.59
